pIC50: −log10 of the molar value. A value given as a limit tells only on which side of the number the result lay.

Chain of Programmed cell death 1 ligand 1 (Q9NZQ7 whole entry): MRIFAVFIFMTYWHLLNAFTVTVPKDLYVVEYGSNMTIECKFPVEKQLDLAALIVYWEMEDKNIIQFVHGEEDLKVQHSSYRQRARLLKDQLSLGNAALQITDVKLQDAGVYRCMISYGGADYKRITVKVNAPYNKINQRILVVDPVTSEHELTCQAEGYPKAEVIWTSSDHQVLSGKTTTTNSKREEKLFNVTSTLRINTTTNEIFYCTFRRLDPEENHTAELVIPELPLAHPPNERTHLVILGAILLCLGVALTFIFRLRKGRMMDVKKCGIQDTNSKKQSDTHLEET

The test has as its target Programmed cell death 1 ligand 1 (Homo sapiens, UniProt Q9NZQ7). The experiment in a line: Enzyme-Linked Immunosorbent Assay—ELISA: 96 Well plates were coated with 1 μg/mL of human PD-L1 (obtained from R&D) in PBS overnight at 4′° C. The wells were then blocked with 2% BSA in PBS (W/V) with 0.05% TWEEN-20 for 1 hour at 37′° C. The plates were washed 3 times with PBS/0.05% TWEEN-20 and the compounds were serial diluted (1:5) in dilution medium and added to the ELISA plates. Human PD-1 and biotin 0.3 μg/mL (ACRO Biosystems) were added and incubated for 1 hour at 37° C. then washed 3 times with PBS/0.05% TWEEN-20. A second block was performed with 2% BSA in PBS (WNV)/0.05% TWEEN-20 for 10 min at 37° C. and the plates were washed 3 times with PBS/0.05% TWEEN-20. Streptavidin-HIRP was added for 1 hour at 37° C. then the plates were washed 3 times with PBS/0.05% TWEEN-20. TMB substrate was added and reacted for 20 min at 37° C. A stop solution (2 N aqueous H2SO4) was added. A general note: ELISA stands for enzyme-linked immunosorbent assay.
As a reminder, the pIC50 is the negative decadic logarithm of the IC50, by convention in mol/L. Higher therefore signals a low IC50. The compound `COc1cc(OC)c(F)c(-c2cccc(-c3cc(F)c(CN)c(OC)c3)c2C)c1F` gave a pIC50 greater than 6.00.

With `COc1cc(-c2cccc(-c3ccc4c(c3F)OCCO4)c2C)cc(F)c1CN`, the pIC50 was greater than 6.00.

`Cc1c(-c2ccc(CN)cc2)cccc1-c1cccc(-c2ccc(CN)cc2)c1C` showed a pIC50 greater than 6.00.

For the compound `COc1cc(-c2cccc(-c3ccc4c(c3)OC(CN)CO4)c2C)cc(F)c1CN` (centres undefined), the pIC50 was greater than 6.00.

On to `COc1cc(-c2cccc(-c3ccc4c(c3)OCCO4)c2C)cc(F)c1CN`, for which the pIC50 was greater than 6.00.

`COC(=O)c1ccc(-c2cccc(-c3cccc(-c4cc(F)c(CN)c(OC)c4)c3C)c2C)cc1OC`: the pIC50 was greater than 6.00.

Regarding `COc1cc(-c2cccc(-c3cccc(C)c3)c2C)cc(F)c1CN`, the pIC50 was greater than 6.00.

`COc1cc(-c2cccc(-c3cccc(-c4cc(F)c(CN)c(OC)c4)c3C)c2C)cc(F)c1CN` gave a pIC50 greater than 6.00.

`COc1cc(-c2cccc(-c3cccc(C)c3F)c2C)cc(F)c1CN` had a pIC50 greater than 6.00.

In turn, `COc1cc(-c2cccc(-c3cccc(-c4ccc(CN)cc4)c3C)c2C)cc(F)c1CN` showed a pIC50 greater than 6.00.

Compound `COc1ccc(F)c(-c2cccc(-c3cc(F)c(CN)c(OC)c3)c2C)c1F` gave a pIC50 greater than 6.00.

As to `COc1cc(-c2cccc(-c3cccc(-c4cc(F)c(CN)c(OC)c4)c3C)c2C)ccc1CC(N)=O`, the pIC50 was greater than 6.00.

As to `COc1cccc(-c2cccc(-c3cc(F)c(CN)c(OC)c3)c2C)c1C`, the pIC50 is greater than 6.00.

On to `COc1cccc(-c2cccc(-c3cc(F)c(CN)c(OC)c3)c2C)c1F`, for which the pIC50 was greater than 6.00.

As for `COc1cc(-c2cccc(-c3ccc4c(c3C)OCCO4)c2C)cc(F)c1CN`, the pIC50 is greater than 6.00.

`COc1cccc(-c2cccc(-c3cc(F)c(CN)c(OC)c3)c2C)c1` showed a pIC50 greater than 6.00.

As for `COc1cc(F)cc(-c2cccc(-c3cc(F)c(CN)c(OC)c3)c2C)c1`, the pIC50 is greater than 6.00.

`COc1cc(-c2cccc(-c3ccc4c(c3)NC(=O)CO4)c2C)cc(F)c1CN` showed a pIC50 greater than 6.00.

For the compound `COc1cc(-c2cccc(-c3ccc4nc[nH]c(=O)c4c3)c2C)cc(F)c1CN`, the pIC50 was greater than 6.00.

The record behind these values is ChEMBL document CHEMBL5729415, “Compounds for treatment of PD-L1 diseases” (2022).
